ChEMBL document CHEMBL3507680, “University of Dundee, Gates Library screen for HepG2 cell viability”

Assay: Human HepG2 cell viability assay in 384 well format
Format: toxicity, cell-based
Set-up: dose 125 nL, time 70.5 hour; concentration not given beside the values
Conditions: HepG2 cells, read-out: Inhibition

SMILES	cytotoxicity at 70.5 h [%]
CNCc1cc(C)n(-c2ccccc2OC)c1C	-5.13
Nc1cccnc1N1CCN(c2ccccc2)CC1	-0.724
O=C(O)CCn1ccc(=O)c2cc(F)ccc21	-11.9
Cn1nc(-c2ccccc2)c(Cl)c1C(=O)O	-25.8
O=C(O)c1cn(-c2ccccn2)c(=O)c2ccccc12	-11.1
COc1ccc(-c2noc(C(N)CCSC)n2)cc1 (stereo unspecified)	23.9
COc1ccc(-c2noc(C(N)CCSC)n2)cc1OC (stereo unspecified)	-3.12
CCCOc1ccc(CC2=NC(C)(CO)CO2)cc1 (stereo unspecified)	12
COC(=O)N1CC[C@@]2(O)CCCC[C@H]2[C@@H]1c1ccc2c(c1)OCO2	-4.3
O=C1Nc2ccccc2/C1=C1\CCCCCN1	-9.34
Cc1ccc(C(=O)N2CC[C@@]3(O)CCCC[C@H]3C2)cc1	7.79
CC[C@]12CN3C[C@](CC)(CN(C1)C3c1[nH]c(=O)[nH]c(=O)c1C)C2=O (stereo partly specified)	19.3
CC[C@]12CN3C[C@](C)(CN(C1)C3c1[nH]c(=O)[nH]c(=O)c1C)C2=O (stereo partly specified)	-2.75
CC(C)CCN1C(=O)C2(NC(=O)c3ccccc3O2)c2ccccc21 (stereo unspecified)	-15.1
COCCN1C(=O)c2ccc(C(=O)NCCc3c[nH]cn3)cc2C1=O	-5.32
CNC(=O)c1cn(C)c(-c2nc3cc(NC(C)=O)ccc3n2C)c1OC	-17.5
CSCC[C@H](NC(=O)CCn1ccc2c(Cl)cccc21)C(=O)O	-2.74
COc1ccc2c(ccn2CCC(=O)NCCCC(=O)O)c1	-10.4
CCC[C@H]1CN(Cc2cc(C)no2)C[C@@H]1NC(=O)C1(COC)CCC1	-10
Cc1nc2ccccc2n1Cc1cc(C(=O)N(C)C2CCOC2)n[nH]1 (stereo unspecified)	-12.8
CC(C)NC(=O)c1nc(Cn2c(C(F)(F)F)nc3ccccc32)no1	14.5
CC(C)N1CC2(CCC1=O)CCN(C(=O)c1cccc(F)c1F)CC2	-5.47
COCCNc1nc2c(c(N3CCn4nc(C)cc4C3)n1)CCNCC2	-8.96
CN(C)c1ncc2c(n1)CCCC2NC(=O)c1ccsc1 (stereo unspecified)	-3.74

SMILES	cytotoxicity at 70.5 h [%]
Cc1cc(C)nc(CNC(=O)C(c2cccnc2)N2CCOCC2)n1 (stereo unspecified)	-6.63
CN(Cc1ccc(OCC(=O)N2CCOCC2)cc1)S(C)(=O)=O	2.5
CC(C)[C@H]1COC(=O)N1CC(=O)N1CCN(C(=O)c2ccco2)CC1	8.43
CC(C)c1cc(C(=O)N2C[C@@H](C)[C@](O)(C3CC3)C2)[nH]n1	-5.59
COc1ccc(Cl)cc1C(=O)N1C[C@@H](NC(=O)N(C)C)[C@H](C(C)C)C1	-10.5
COC(=O)N1CCN(Cc2ccccc2Cl)CC1	-1.89
O=C(c1cc(Br)ccc1Cl)N1CCN(Cc2ccco2)CC1	-4.63
Cc1ccc(-c2c(C(=O)NC3CCN(C)CC3)csc2C)cc1	-9.95
CCc1ccc(C(=O)N2CCN(Cc3ccc(F)cc3)CC2)s1	4.63
CNc1cc(C)nc(N2CCC3(CC2)[C@H](O)C[C@@H]3OC)n1	-2.45
O=C(Cc1ccccc1F)NCCN1CCOCC1	-6.95
Cc1ccc(CN2CCN(C(=O)c3ccc(Br)o3)CC2)cc1	27.9
COc1ccc(-c2nc(CN(C)Cc3nncn3C)c(C)o2)c(C)c1C	5.19
COCCC1CCN([C@@H]2c3ccccc3C3(CCNCC3)[C@H]2O)CC1	-3.9
NCCc1n[nH]c(=O)n1-c1cccc2ccccc12	-4.93
O=C1OC2(CCNCC2)CN1CC(=O)N1CCCC1c1nccs1 (stereo unspecified)	-7.02
COCCn1ccnc1CN(Cc1ccccn1)CC(C)C	-6.56
O=C(c1cc(Cn2cnc3ccccc32)on1)N1CCOCC1	-17.3
Cc1c(C(=O)NC2CCCC2)nnn1-c1ccccc1	-8.58
CCN(CCc1nc2cc(C)ccc2[nH]1)C(=O)[C@@H](N)Cc1c[nH]cn1	-11.4
CN(Cc1noc(-c2ccccc2)n1)C(=O)CSc1nnc(N)s1	14.3
COc1ccc2c(c1)C(C(=O)N(C)CCCc1nccn1C)CC(=O)N2 (stereo unspecified)	5.74
COCCn1cncc1Cn1ncc2ccccc2c1=O	-4.19
CN(CC(=O)Nc1ccon1)S(=O)(=O)c1cc(Cl)ccc1Cl	23.9

SMILES	cytotoxicity at 70.5 h [%]
Cc1nc(N2CCC(C(O)c3nccn3C)CC2)c2nc(C)oc2n1 (stereo unspecified)	-5.83
Cc1cccc(-n2c(C)cc(=O)[nH]c2=O)c1C	-4.81
O=C1NCCCC12CCN(c1nc3c(c(C(F)(F)F)n1)CCCC3)C2 (stereo unspecified)	-6
Cc1cc(NC(=O)CCn2cncn2)no1	5.52
COC(=O)NCC(=O)N(C)CC1Cc2ccccc2CN1C (stereo unspecified)	-2.82
CCN1CCN(S(=O)(=O)c2cnc(NC(C)=O)s2)CC1	17.3
COc1cc(NC(=O)NCc2ccccn2)cc(OC)c1	8.5
Cc1ccccc1CN(CCN(C)C)Cc1ccccc1C(=O)O	-7.13
Cc1cc(NCCNc2ncccc2C)n2nc(C)cc2n1	-15.2
O=C(N1CCOCC1)N1CCCC1c1nc(-c2ccccn2)no1 (stereo unspecified)	-8.93
COc1cccc(CC2CN(C3CC(C)(C)NC(C)(C)C3)CCO2)c1 (stereo unspecified)	50.4
CN(Cc1ccccc1Cl)C(=O)c1cc(CN2CCC(O)CC2)on1	-17.3
CCc1ccccc1OCCNCCc1c[nH]cn1	29.6
COc1cccc(-c2ncc(CN3CCOCC(O)C3)s2)c1 (stereo unspecified)	-6.59
COc1ccc(OCCN2CCCN(Cc3noc(C)n3)CC2)cc1	30.5
O=C(NCCn1ccnc1)c1ccn(-c2ccccc2)n1	-1.21
Cc1nnc(CN2CCCC2c2c(C)nn(C)c2Cl)o1 (stereo unspecified)	-11.6
Cc1nn(C)c(Cl)c1C1CCCN1Cc1nc(C2CC2)no1 (stereo unspecified)	-7.26
CC(C)c1nccn1C1CCCN(C(=O)c2cc(C3CC3)on2)C1 (stereo unspecified)	-3.7
Cc1nccc(-c2cccc(NCC(=O)N3CCCC(C)C3)c2)n1 (stereo unspecified)	-9.5
Cc1noc(NC(=O)c2ccc(C#N)cc2)n1	-7.88
Cc1noc(NC(=O)c2ccc(Br)o2)n1	-9.68
CCc1nc(C)c(C(=O)NCCNC(=O)c2cccs2)s1	15.7
Cc1ccc(C(O)CNC(=O)NCc2c(C)cc(C)[nH]c2=O)cc1 (stereo unspecified)	-9.83

SMILES	cytotoxicity at 70.5 h [%]
Cc1cc(C)c(CNC(=O)NCC(O)c2ccc(Cl)cc2)c(=O)[nH]1 (stereo unspecified)	-4.37
Cc1ccc(C(=O)NCC(O)c2cccc(F)c2)c(=O)[nH]1 (stereo unspecified)	-0.0981
Cc1cc(C)c(CNC(=O)NCc2cc(F)cc(F)c2)c(=O)[nH]1	-3.54
Cc1cc(C)c(CNC(=O)NCC(O)c2ccccc2)c(=O)[nH]1 (stereo unspecified)	-1.05
COC(CNC(=O)NCc1c(C)cc(C)[nH]c1=O)c1ccccc1 (stereo unspecified)	-12.2
COc1ccccc1CN(C)C(=O)NCc1c(C)cc(C)[nH]c1=O	-0.543
Cc1cc(C)c(CNC(=O)N(C)Cc2cccc(C#N)c2)c(=O)[nH]1	-1.75
Cc1ccccc1-n1c(C)cc(C(=O)N2CCn3c(C)nnc3C2)c1C	-1.44
Cc1nnc2n1CCN(C(=O)c1cc(C)n(-c3ccccc3)c1C)C2	-4.87
CCOc1ccnc(N2CCN(C(=O)c3ccc(C#N)cc3)CC2)n1	2.75
CCOc1ccnc(N2CCN(C(=O)c3ccncc3)CC2)n1	-9.15
CC(NC(=O)NCc1c(F)cccc1Cl)(C(=O)O)c1ccco1 (stereo unspecified)	-8.24
Cc1cnn(CC2CCCCN2C(=O)c2c(C)noc2C)c1 (stereo unspecified)	-0.615
Cc1ncc2c(n1)CN(CC(=O)NCCOc1ccccc1)CC2	-11.5
c1ccc(-n2ccc(CNCC3CCCN3c3cccnn3)n2)cc1 (stereo unspecified)	0.819
CC(C)c1n[nH]c(C2CN(C(=O)c3cnccn3)CCO2)n1 (stereo unspecified)	18.8
CCc1noc(C)c1C(=O)N1CCCC1Cn1cccn1 (stereo unspecified)	-3.75
O=C(NCc1ccccc1Cn1cncn1)C1CC1	-11.8
CC(NC(=O)CSCC#N)c1cccc(Cl)c1 (stereo unspecified)	-9.11
O=C(CCC1CCCO1)NCc1ccccc1Cn1cncn1 (stereo unspecified)	-9.42
CCc1nc(C(=O)N2CCCC2)nn1-c1c(Cl)cccc1Cl	-2.51
C=C(C)CN1CCC(NC(=O)c2scnc2C)CC1	-5.87
Cc1nn(C)c(N2CCOCC2)c1CNC(C)c1cccs1 (stereo unspecified)	-1.47
Cc1nccn1-c1cc(CNC(=O)C2CCCO2)ccn1 (stereo unspecified)	-7.47

SMILES	cytotoxicity at 70.5 h [%]
Cc1cnc(C(=O)N2CCCC(n3cccn3)C2)cn1 (stereo unspecified)	-1.48
COc1ccccc1OCCNC(=O)CN1CCc2cncnc2C1	-5.72
CC(C)(C)c1n[nH]c(C2CN(C(=O)C3=COCCC3)CCO2)n1 (stereo unspecified)	-6.48
Cc1nc(C(=O)N2CCOC(c3nc(C(C)C)n[nH]3)C2)c[nH]1 (stereo unspecified)	-2.01
COc1c(CNCc2ccc3c(c2)OCCO3)c(C(C)C)nn1C	-6.06
Cc1[nH]nc2ncc(C(=O)N3CCN(CCC(C)C)CC3)cc12	25.8
Cc1noc(C(C)N2CCN(Cc3ccco3)CC2)n1 (stereo unspecified)	-11.9
O=C(NCCN1CCCS1(=O)=O)c1scnc1Cl	-24.6
O=C(CCc1ccco1)Nc1cc(C(F)(F)F)c[nH]c1=O	-8.18
CC1CCCN(CCNC(=O)c2scnc2Cl)C1 (stereo unspecified)	-7.04
CN(Cc1ccco1)C(=O)Nc1cc(C(F)(F)F)c[nH]c1=O	-14.9
CC(=O)N1CCCN(C(=O)CCc2c(C)nc3ccnn3c2C)CC1	-15.3
COc1ccnc(N2CCN(C(=O)CN3CCOCC3)CC2)n1	8.59
CCS(=O)(=O)N1CCN(C(=O)c2cnc3[nH]nc(C)c3c2)CC1	-5.38
CCn1ccnc1CN1CCN(CCOc2ccccc2C#N)CC1	-19.6
O=C(COCc1ccco1)Nc1cc(C(F)(F)F)c[nH]c1=O	31.5
Cc1nc(CN2CCc3nn(C)c(=O)cc3C2)oc1C	-9.42
CC(=O)Nc1nc(C(=O)N2CCCC(n3nc(C)nc3C)C2)cs1 (stereo unspecified)	-10.7
Nc1cccnc1N1CCCCCC1	2.46
CC(C)c1nn(C)c(Cl)c1CNCc1ccc2c(c1)OCO2	-5.25
